Reference: patent publication US9624256B2, “Coordination complexes, pharmaceutical solutions comprising coordination complexes, and methods of treating patients” (SYNTHONICS, INC., priority 2004, dated 2017)
Several values for one entry are separate records, joined by “and”; a condition that tells them apart may be missing. Equal entries are not always repeated. Where two headings read alike, the source gives them in different places.

Experiments:
[1] = Precipitation test after adjusting aqueous solution to pH 7.0; type: physicochemical; settings: 32 mg based on topiramate in 1 mL H2O, pH adjusted to 7.0 with 1.0 N HCl
[2] = for pH: Table 2, pH of the solution; for increase in water solubility over SAHA: pH 10
[3] = highly variable; cited from earlier work
[4] = cited from earlier work
[5] = 23° C., cited from earlier work
[6] = Solubility/pH studies of topiramate-containing coordination complexes (gravimetric); type: physicochemical
Protocol: Solubility/pH Studies of Topiramate-Containing Coordination Complexes: Initial screening of drug candidates was based on a qualitative determination of aqueous solubility using gravimetric methods. Briefly, a known quantity of coordination compound (ca. 50 mg) was dissolved in a known amount of water ([…]). The pH of the resulting mixture was measured, and the solution/suspension was filtered and concentrated to afford a minimal solubility value.

[7] = pH 7.4; cited from earlier work

CC1(C)O[C@@H]2[C@@H](CO[C@@]3(COS([NH-])(=O)=O)OC(C)(C)O[C@@H]23)O1.CC1(C)O[C@@H]2[C@@H](CO[C@@]3(COS([NH-])(=O)=O)OC(C)(C)O[C@@H]23)O1.[Ca+2] [Calcium Salt of Topiramate]
precipitation on standing [1]: A precipitate formed immediately

O=C(CCCCCCC(=O)Nc1ccccc1)N[O-].O=C(CCCCCCC(=O)Nc1ccccc1)N[O-].[Mg+2] [Compound 1, Mg(saha)2]
pH of the solution [2]: 7.75 | pH [2]: 7.94

O=C(CCCCCCC(=O)Nc1ccccc1)N[O-].O=C(CCCCCCC(=O)Nc1ccccc1)N[O-].[Ca+2] [Compound 2, Ca(saha)2]
pH of the solution [2]: 8.60 | pH [2]: 8.6 | pH of solution compared with SAHA ([2]; in words): slightly higher than the pH of a solution of SAHA itself

Ca(saha)(tricine) [Compound 4]
pH of the solution [2]: 8.75 | pH [2]: 8.75

O=C(CCCCCCC(=O)Nc1ccccc1)NO [SAHA, suberoylanilide hydroxamic acid]
pH [2]: 7.95 | oral bioavailability [3]: less than 50% | water solubility [4]: about 0.1 mg/mL

CC1(C)O[C@@H]2[C@@H](CO[C@@]3(COS([NH-])(=O)=O)OC(C)(C)O[C@@H]23)O1.O.O.O.[Na+] [sodium topiramate trihydrate]
water solubility ([5]; trihydrate): about 1300 mg/mL and ~3.59 M

CC1(C)O[C@@H]2[C@@H](CO[C@@]3(COS([NH-])(=O)=O)OC(C)(C)O[C@@H]23)O1.CC1(C)O[C@@H]2[C@@H](CO[C@@]3(COS([NH-])(=O)=O)OC(C)(C)O[C@@H]23)O1.[Ca+2] [Calcium(topiramate)2]
precipitation on standing [1]: No precipitate was observed upon standing for 2 hours | solubility relative to free topiramate ([6]; pH 7.0): at least three times the solubility of free topiramate | solubility (minimal value) ([6]; pH 7.0, gravimetric): ≥ 34 mg/mL

CC1(C)O[C@@H]2[C@@H](CO[C@@]3(COS(N)(=O)=O)OC(C)(C)O[C@@H]23)O1 [topiramate, 2,3:4,5-bis-O-isopropylidene-β-D-fructopyranose sulfamate]
water solubility [5]: about 9.8 mg/mL and ~0.029 M | log D [7]: −0.5

O=C(CCCCCCC(=O)Nc1ccccc1)N[O-].O=C(CCCCCCC(=O)Nc1ccccc1)N[O-].[Ni+2] [Compound 3, Ni(saha)2]
pH of the solution [2]: 5.86 | pH [2]: 5.67

Ca(saha)(quinic acid) [Compound 5]
increase in water solubility over SAHA [2]: ~19 fold

O=C(CCCCCCC(=O)Nc1ccccc1)N[O-].[Na+] [Na(saha)]
pH of the solution [2]: around 10 | pH [2]: 10 | pH of the solution ([2]; listed as sodium salt of SAHA): 10 | increase in water solubility over SAHA [2]: ~7 fold | solution pH required to stay in solution ([4]; prior study, Memorial Sloan Kettering Cancer Center): above 11
